Holding throughout (assay type): in vivo
The test system of data set [1] is Silverleaf Whitefly (Bemisia argentifolii, Adult). The data set is described as follows: Silverleaf whitefly, cotton plants sprayed. The following applies: 300 ppm, 3 days after treatment. As to the method: II.8 Silverleaf Whitefly (Bemisia argentifolii, Adult)
The active compounds were formulated in cyclohexanone as a 10,0000 ppm solution supplied in 1.3 ml ABgene® tubes. These tubes were inserted into an automated electrostatic sprayer equipped with an atomizing nozzle and they served as stock solutions for which lower dilutions were made in 50% acetone:50% water (vol/vol). A nonionic surfactant (Kinetic®) was included in the solution at a volume of 0.01% (vol/vol).
Cotton plants at the cotyledon stage (one plant per pot) were sprayed by an automated electrostatic plant sprayer equipped with an atomizing spray nozzle. The plants were dried in the sprayer fume hood and then removed from the sprayer. Each pot was placed into a plastic cup and 10 to 12 whitefly adults (approximately 3-5 days old) were introduced. The insects were collected using an aspirator and 0.6 cm, nontoxic Tygon® tubing (R-3603) connected to a barrier pipette tip. The tip, containing the collected insects, was then gently inserted into the soil containing the treated plant, allowing insects to crawl out of the tip to reach the foliage for feeding. Cups were covered with a reusable screened lid (150-micron mesh polyester screen PeCap from Tetko, Inc.). […] Mortality was assessed 3 days after treatment, compared to untreated control plants.

For data set [2], the system named is Brown Planthopper (Nilaparvata lugens). The data set is described as follows: Brown planthopper, rice seedlings sprayed. The conditions noted are these: 500 ppm, after 72 hours. The method, then: II.7 Activity Against Brown Planthopper (Nilaparvata lugens)
The active compounds were formulated as a 50:50 (vol/vol) acetone:water solution. Surfactant (Alkamuls EL 620) was added at the rate of 0.1% (vol/vol).
Rice seedlings were cleaned and washed 24 h before spraying. Potted rice seedlings were sprayed with 5 ml test solution, air dried, placed in cages and inoculated with 10 adults. Treated rice plants were kept at 28-29° C. and relative humidity of 50-60%. Percent mortality was recorded after 72 hours.

The subject of data set [3] is Cotton Aphid (Aphis gossypii, Mixed Life Stages). The data set is described as follows: Cotton aphid, method b) (electrostatic sprayer). The following applies: 300 ppm; infested cotton plants sprayed; after 5 days. The method, then: II.1 Cotton Aphid (Aphis gossypii, Mixed Life Stages)
The active compounds were formulated in cyclohexanone as a 10,0000 ppm solution supplied in 1.3 ml ABgene® tubes. These tubes were inserted into an automated electrostatic sprayer equipped with an atomizing nozzle and they served as stock solutions for which lower dilutions were made in 50% acetone:50% water (vol/vol). A nonionic sur25 factant (Kinetic®) was included in the solution at a volume of 0.01% (vol/vol).
Cotton plants at the cotyledon stage were infested with aphids prior to treatment by placing a heavily infested leaf from the main aphid colony on top of each cotyledon. Aphids were allowed to transfer overnight to accomplish an infestation of 80-100 aphids per plant and the host leaf was removed. The infested plants were then sprayed by an automated electrostatic plant sprayer equipped with an atomizing spray nozzle. The plants were dried in the sprayer fume hood, removed from the sprayer, and then maintained in a growth room under fluorescent lighting in a 24-hr photoperiod at 25° C. and 20-40% relative humidity. Aphid mortality on the treated plants, relative to mortality on untreated control plants, was determined after 5 days.

Data set [4] concerns Boll Weevil (Anthonomus grandis). The data set is described as follows: Boll weevil, insect diet in 24-well-microtiter plates. The following applies: 120 h, test solution 2500 mg/L, sprayed onto insect diet, 5 days, read-out: mortality (egg and larval). As to the method: II.5 Boll Weevil (Anthonomus grandis)
The compounds were formulated in 75:25 (vol/vol) water:DMSO.
For evaluating control of boll weevil (Anthonomus grandis) the test unit consisted of 24-well-microtiter plates containing an insect diet and 20-30 A. grandis eggs. Different concentrations of formulated compounds were sprayed onto the insect diet at 20 μl, using a custom built micro atomizer, at two replications. After application, the microtiter plates were incubated at 23±1° C. and 50±5% relative humidity for 5 days. Egg and larval mortality was then visually assessed.

Data on four compounds can be found in patent publication US8609700B2, “Pyridine compounds for controlling invertebrate pests I” (BASF SE, priority 2010, dated 2013).

A value given as a limit tells only on which side of the number the result lay.

For `O=C(Nc1cccnc1)c1sccc1C(F)(F)F` [Compound 7], the “mortality in comparison with untreated controls” value (from here on “mortality in comparison”) in data set [1] was “at least 75%”.
Turning to `CN(C(=O)c1cccn1C)c1cccnc1` [Compound 14], the “mortality in comparison” value in data set [2] was “at least 50%”.
Take `O=C(Nc1cccnc1)c1cscc1C(F)(F)F` [Compound 26]: in data set [3], the “mortality in comparison” value is listed as “at least 75%”.
A word on the mortality: it is the share of the test organisms that died. With `CN(C(=O)c1cc(Cl)sc1Cl)c1cccnc1` [Compound 28, 2,5-Dichloro-thiophene-3-carboxylic acid methyl-pyridin-3-yl-amide], the mortality at 2500 µg/mL in data set [4] was at least 50%.
